Assay [1] concerns S1 + S2 (split ATP aptamer / split G-quadruplex receptor) (DNA, aptamer, internal C12 spacer (iSpC12) after position 12 of strand 1 and after position 16 of strand 2) TGGGTGGGTTTTTTTACCTGGGGGAGTAT/TGCGGAGGAAGGTTTTTTTAGGGCGGGT
Nature of the assay: ThT fluorescence enhancement at 504 nm. The following applies: 2.2-fold with 1.0 mM ATP; ThT 20 μM; 1.0 μM strands; 100 mM Tris-HCl pH 7.4.

Assay [2] shares this test system. Nature of the assay: G4-hemin Amplex Red peroxidase fluorescence in LUVs. The following applies: 100 mM Tris-HCl pH 7.0; functional readout; used instead of ATP; concentration not given.
In assay [3] the test system is FAM-S1 + TAMRA-S2 (DNA, aptamer, internal C12 spacer (iSpC12) after position 11 of strand 1 and after position 16 of strand 2) TGGGTGGGTTTTTTACCTGGGGGAGTAT/TGCGGAGGAAGGTTTTTTTAGGGCGGGT
The experiment in a line: FRET in LUVs. As to conditions: ATP 0-1.0 mM; FAM-S1:TAMRA-S2 1:5; Fa/Fd 0.4 to 0.5.

The test system of assay [4] is S1 + S2 (split ATP aptamer / split G-quadruplex receptor) (DNA, aptamer, internal C12 spacer (iSpC12) after position 12 of strand 1 and after position 16 of strand 2) TGGGTGGGTTTTTTTACCTGGGGGAGTAT/TGCGGAGGAAGGTTTTTTTAGGGCGGGT
Nature of the assay: SYBR Green I fluorescence melting. As to conditions: derived from two Tm (46.2 to 55.0 °C); 1.0 mM ATP; 1.0 μM strands; 100 mM Tris-HCl pH 7.4.

Assay [5] shares this test system. Nature of the assay: G4-hemin peroxidase activity (Amplex Red) in LUVs. The following applies: ATP 0-1.0 mM; hemin 4 μM; 100 mM Tris-HCl pH 7.0; functional readout.

Consider `Cc1ccc2c(c1)sc(-c1ccc(N(C)C)cc1)[n+]2C`, for which, in assay [1], the binding result is reported as “yes”.
`Nc1nc2c(ncn2[C@@H]2O[C@H](CO)[C@@H](O)[C@H]2O)c(=O)[nH]1`: in assay [2], the binding entry is reported as “no”.
Same read-out and setting: next, `O=c1ccn([C@@H]2O[C@H](CO)[C@@H](O)[C@H]2O)c(=O)[nH]1`: “no”.
Consider `Nc1ccn([C@@H]2O[C@H](CO)[C@@H](O)[C@H]2O)c(=O)n1`, for which the binding result in assay [2] is “no”.
`Nc1ncnc2c1ncn2[C@@H]1O[C@H](COP(=O)(O)OP(=O)(O)OP(=O)(O)O)[C@@H](O)[C@H]1O`: the binding entry in assay [3] is reported as “yes”. For the same compound, in assay [4], the “ΔTm (melting temperature shift)” value is 8.8 °C.
For `C=CC1=C(C)C2=Cc3c(C=C)c(C)c4[n]3[Fe]([Cl])[n]3c(c(C)c(CCC(=O)O)c3=CC3=NC(=C4)C(C)=C3CCC(=O)O)=CC1=N2`, the binding result in assay [5] is listed as “yes”.

The values above are taken from publication PMC8208304 (2021).
